Source: patent US20230303504A1, “CRYSTALLINE SALTS OF TIZOXANIDE AND 2-HYDROXY-N-(5-CHLORO-1,3-THIAZOL-2-YL)BENZAMIDE (RM-4848) WITH ETHANOLAMINE, MORPHOLINE, PROPANOLAMINE, PIPERAZINE AND N-METHYLPIPERAZINE” (priority 2020, published 2023)
Where a name gives a salt, the structure may show the parent alone.

Assays:
[1] = Bioavailability pharmacokinetic study, single oral gavage dose in rats; assay type: in vivo, Sprague-Dawley rats; details: for maximum concentrations (Cmax) of T (medians): both, Sprague-Dawley
Method: A study was conducted to evaluate the bioavailability of tizoxanide (T) and tizoxanide glucuronide (TG) in plasma following oral administration of a single dose of 90 mg/kg RM-5071, RM-5072 and nitazoxanide by oral gavage to four male and four female Sprague-Dawley rats. Plasma samples were collected at 0.083, 0.167, 0.25, 0.5 1, 2, 6, 12 and 24-hours post-dose. Concentrations of T and TG were determined using mass spectrometry. […] These compounds are rapidly absorbed achieving Cmax within 5 minutes after an oral dose.
Animals and treatment. Three groups of four male and four female Sprague-Dawley rats were administered RM-5071, RM-5072 or NTZ as a single oral gavage dose as detailed in the table below:
Nine serial blood samples were obtained from each animal at 0.083, 0.167, 0.25, 0.5 1, 2, 6, 12 and 24-hours post-dose. Derived plasma samples were stored in sodium heparinized tubes at −70° C. or lower until they were shipped on dry ice via overnight courier for analysis of T and TG concentrations by mass spectrometry.
Because some animals glucurono-conjugate T faster than others, the extent, rate and variability of absorption of these three compounds using the sum of free and glucurono-conjugated T concentrations at each timepoint were evaluated. To arrive at the concentrations of glucurono-conjugated T, TG concentrations were multiplied by 61% (molecular weight of T=270 divided by molecular weight of TG=441).

[2] = XRD temperature test (oven heating, then XRD); assay type: physicochemical
Method: A temperature test was performed in order to determine if any physical and crystallinity changes occurred to the sample RM-5071 upon heating.In order to assess if any change occurred two set of experiments were performed as follows: Experiment A- Two petri dishes were identified as “Fast” and “Slow”. To each petri dish, approximately 2 spatulas of sample RM-5071 were added. Then, the oven was turned on and set to a temperature of-160-165° C. After reaching the temperature, the petri dishes were placed in the oven for 15 minutes. Once the time was completed, the oven was turned off and the “Fast” sample was removed and left to reach room temperature (RT) in the hood. The “Slow” sample was left in the oven to reach RT in a slower manner. The “Slow” sample was removed from the oven, once it reached RT. The samples were analyzed by XRD. Experiment B- The procedure described above was followed at a temperature range of ˜110-120° C. After reaching the temperature, the petri dishes were placed in the oven during 10 minutes. The removal of samples from the oven was followed as previosly described. Afterwards, the samples were analyzed by XRD.

physchem [3] = assay type: physicochemical
Method: The acid titration was performed by adding 20 mL of a 1 mg/mL RM-5071 solution poured onto a beaker (titrate), the pH of the solution was measured while using a solution of 0.01N HCl as the titrant. The alkaline titration was performed by adding 20 mL of a 1 mg/mL RM-5071 solution were poured onto a beaker, the pH of the solution was measured while adding a solution 0.02 N NaOH as the titrant. The solutions had agitation with a magnetic stirrer during titration and it was stopped during pH measurements.
The inflection point was calculated using the second derivative of the experimental curve, the volume for the equivalence point is 5.83 mL of 0.01 N HCl, at a pH =5.99. […] The pKa of a phenolic proton is 9.9 as per Vollhardt, K. P. C.; Schore, N. E., Organic Chemistry; Palgrave Version: Structure and Function. Macmillan International Higher Education: 2014.

[4] = Differential scanning calorimetry (DSC); assay type: physicochemical; details: 10 °C/min under nitrogen; irreversible for RM-5071
Method: Differential scanning calorimetry (DSC) is a thermo-analytical technique in which the difference in the amount of heat required to increase the temperature of a sample versus a reference are measured as a function of temperature. The reference sample should have a well-defined heat capacity over the range of temperatures to be scanned. One application of DSC is studying phase transitions, such as melting, glass transitions, and/or exothermic decompositions. Such measurements provide qualitative and quantitative information about physical and chemical changes of a molecule.
The calorimetric analysis was performed by the MCC. For the DSC analysis, amounts between 2.34 to 2.46 mg of the samples RM-5071 and desacetyl-NTZA were placed individually in aluminum hermetic pans and covered with an aluminum lid. The temperature method was: step 1: hold for 10 min at 25° C., and step 2: heat from 25° C. to 400 at 10.00 ° C./min. An additional DSC experiment was performed to determine further crystallinity behavior by performing a heat-cool-heat cycling experiment to RM-5071. Approximately 1.69 mg of the RM-5071sample was placed in an aluminum hermetic pan and covered with an aluminum lid. […]

physchem [5] = assay type: physicochemical; remark: listed apart in the source
From the text: The appropriate amine is heated with an equimolar amount of either tizoxanide or RM4848 in methanol until a clear solution is obtained. Any small amounts of undissolved solid are removed by filtration. On cooling, the desired salt may crystallize immediately; addition of an equal volume of a solvent, such as diethyl ether (for the tizoxanide salts) or concentration to a small volume, then addition of excess ether (for salts of RM4848), may be used to obtain solid products. In general the salts of RM4848 are more soluble under the above conditions. All the salts are more soluble in water than the parent thiazolides.
The resulting slurry was filtered without issues; the filtration went easy on a glass sintered funnel. The cake was washed with water (3×2 Veq) and methanol (3×2 Veq). Combining the neutralization step and aqueous washings provide that no HCl remains in the cake. Avoiding residual HCl in the product may be important because it could react with ethanolamine during step 2. Washing the cake with methanol allows for the removal of water. […] This way no Tizoxanide is lost during the washing of the cake; nevertheless, the remaining NTZA is not removed either.
RM5071 is not soluble in ethyl acetate, but it tends to form a sticky material. This was also observed during a test reaction in pure ethyl acetate. In addition, it was observed that RM5071 is almost soluble in methanol at a concentration of 5 mg/mL.

[6] = Thermogravimetric analysis (TGA); assay type: physicochemical
From the text: Thermogravimetric analysis (TGA) is an analytical technique used to determine the thermal stability of a material and its fraction of volatile components by monitoring the weight change that occurs as a substance is heated. As many weight loss curves look similar, the curves may require transformation before results may be interpreted. A derivative weight loss curve can be used to tell the point at which weight loss is most apparent. The analysis is normally carried out in air or in an inert atmosphere such as nitrogen.
For the TGA analysis, amounts between 2.0 to 2.6 mg of both RM-5071 and desacetyl-NTZA samples were placed individually in platinum pans. The temperature method was: step 1: equilibrate at 25° C., step 2: heat from 25° C. to 700° C. at 10.00° C./min, step 3: hold for 5 min at 700° C. The analyses were carried out under nitrogen.

physchem [7] = assay type: physicochemical; details: for solubility: thermodynamic from solid
Method: The apparent solubility of RM-5071 was tested using several solvents, specifically: DMF, DMSO, acetonitrile (ACN), water, ACN/water mixture, methanol, isopropanol, and ethanol. United States Pharmacopeia (USP) classify the solubility regardless of the solvent used, just following defined criteria summarized in Table 10. The solute was initially dissolved in each of the solvents or solvent system at a lmg/mL concentration. If solute remained undissolved, a fresh solution of lower concentration was subsequently prepared until the solid was observed completely dissolved. This concentration limit was estimated as the apparent solubility.
The solutions of RM-5071 were prepared, dissolving 10 mg in increasing solvent volumes ranging from 10 mL, 100 mL, to 1000 mL in each of the solvents. According to the visual inspection and observations the apparent solubility of RM-5071 was classified according the 10, as defined by the USP.
The solubility studies of RM-5071 were performed in several solvents as specified on Table 11 at room temperature. For the purpose of this chemical characterization report, the terms specified on Table 10 were used to describe the solubility of RM 5071 in different solvents on Table 12

[8] = in vivo; cited from earlier work
[9] = single 90 mg/kg oral gavage, 4 male and 4 female rats per group
[10] = single 90 mg/kg oral gavage, rats

O=C(Nc1ncc([N+](=O)[O-])s1)c1ccccc1O [RM-5072, 2-Hydroxybenzoyl-N-[(5-Nitro)Thiazol-2-yl]Amide, Morpholine Salt]
maximum concentrations (Cmax) of T (medians) ([1]; rat, in vivo, po, 90 mg/kg): 3100 ng/mL | adverse clinical signs [1, 9]: No adverse clinical signs were observed | speed of availability of T in plasma compared to NTZ [1, 10]: dramatically improve

O=C(Nc1ncc([N+](=O)[O-])s1)c1ccccc1O [RM-5071, 2-Hydroxybenzoyl-N-[(5-Nitro)Thiazol-2-yl]Amide, Ethanolamine Salt]
physical and crystallinity changes upon heating ([2]; Experiment A: 160-165° C., 15 minutes): changed from bright yellow to a black powder with beige portions | physical and crystallinity changes upon heating ([2]; Experiment B: 110-120° C., 10 minutes): does not change significantly | pKa (physchem [3]): 8.8 | pH of solution (physchem [3]; 1 mg/mL RM-5071 solution, initial): 9.44 | pH at which full dissolution of the solid is achieved (physchem [3]; 1 mg/mL, titration with NaOH): 10.63 | DSC peak transition temperature (exothermic; solid stable up to) [4]: 163 °C | maximum concentrations (Cmax) of T (medians) ([1]; rat, in vivo, po, 90 mg/kg): 4700 ng/mL | bioavailability in terms of the maximum concentration compared to NTZA ([1]; rat, in vivo): more bioavailable | mean AUC0-12h relative to NTZ ([1]; rat, in vivo): roughly the same | mean AUC0-12h relative to RM-5072 ([1]; rat, in vivo): almost double | adverse clinical signs [1, 9]: No adverse clinical signs were observed | plasma concentrations of T and TG (free and glucurono-conjugated T) compared to RM-5072 or NTZ [1, 10]: higher | speed of availability of T in plasma compared to NTZ [1, 10]: dramatically improve | variability of absorption compared to RM-5072 or NTZ [1, 10]: less variability | solubility in ethyl acetate (physchem [5]): not soluble | solubility (physchem [5]; organic solvent or mixture): ~5000 µg/mL | First step Temperature (° C.) ([6]; 10 °C/min under nitrogen): 85-160 °C | Second step Temperature(° C.) ([6]; 10 °C/min under nitrogen): 160-254 °C | Second step Weight loss (%) ([6]; 10 °C/min under nitrogen): 30.93% | Third step Temperature(° C.) ([6]; 10 °C/min under nitrogen): 254-700 °C | Third step Weight loss (%) ([6]; 10 °C/min under nitrogen): 26.62% | total weight loss ([6]; 25 to 700 °C under nitrogen): 77% | Apparent solubility (physchem [7]): very soluble | solubility (physchem [7]; aqueous with cosolvent or surfactant or cyclodextrin, Apparent Solubility of RM-5071): > 1000 µg/mL | solubility (physchem [7]; aqueous with cosolvent or surfactant or cyclodextrin, Apparent Solubility of RM-5071 (concentration limit)): > 1000 µg/mL | solubility (physchem [7]; organic solvent or mixture, Apparent Solubility of RM-5071 (concentration limit)): 33 µg/mL | solubility (physchem [7]; water, Apparent Solubility of RM-5071 (concentration limit)): < 5 µg/mL

O=C(Nc1ncc([N+](=O)[O-])s1)c1ccccc1O [Desacetyl-NTZA, 2-Hydroxybenzoyl-N-[(5-nitro)thiazol-2-yl]amide]
solubility in methanol (physchem [5]): fairly insoluble | solubility in water (physchem [5]): fairly insoluble

CC(=O)Oc1ccccc1C(=O)Nc1ncc([N+](=O)[O-])s1 [NTZ, 2-(acetolyloxy)-N-(5-nitro-2-thiazolyl) benzamide, reference compound]
maximum concentrations (Cmax) of T (medians) ([1]; rat, in vivo, po, 90 mg/kg): 1700 ng/mL | adverse clinical signs ([1]; rat, in vivo, po, 90 mg/kg): No adverse clinical signs were observed | time at which Cmax of T was achieved ([1]; rat, in vivo, po, 90 mg/kg): 2 h | plasma half-life [8]: 1.3 h | solubility in methanol (physchem [5]): fairly insoluble | solubility in water (physchem [5]): fairly insoluble
